# Like-named read-outs stand apart in the source and are kept apart here.
# What was measured:
# M. abscessus = experiment: MIC by broth microdilution, M. abscessus; assay type: cell-based; details: Table 5 (Example 3)
# M. smegmatis SZ380 = experiment: MIC by broth microdilution, M. smegmatis; details: for MIC M. smegmatis SZ380 WT: Table 5 (Example 3)
# E coli wild type = experiment: MIC by broth microdilution, wild type E coli; assay type: cell-based; details: for MIC E. coli WT: Table 5 (Example 3); for MIC: Escherichia coli
# [1] = tested on: E coli carrying specific resistance determinants; experiment: MIC by broth microdilution, E coli carrying specific resistance determinants; assay type: cell-based; details: for MIC APH(3)-VI / MIC APH(3′)-I / MIC APH(3′)-II / MIC APH(3′)-III: Table 3 (Example 1); for MIC: Escherichia coli
# [2] = tested on: wild type bacterial ribosomes; experiment: in-vitro translation assay, bacterial ribosomes; assay type: biochemical; details: bacterial ribosome, read-out: IC50 Bac
# Excerpt: (§1) The antiribosomal activity of these compounds was investigated with cell-free translation assays using both wild type bacterial ribosomes and hybrid ribosomes carrying eukaryotic decoding A sites enabling the prediction of selectivity.
# [3] = tested on: cytosolic ribosome (human chimeric); assay type: biochemical; details: cytosolic, read-out: IC50 Cyt
# Excerpt: as §1
# [4] = tested on: mitochondrial ribosome (human chimeric); assay type: biochemical; details: mitochondrial, read-out: IC50 Mit
# Excerpt: as §1
# P aeruginosa = experiment: MIC by broth microdilution, P aeruginosa isolates; assay type: cell-based, Pseudomonas aeruginosa; details: Table 1 (Example 2); for MIC50: Pseudomonas aeruginosa
# MRSA = experiment: MIC by broth microdilution, MRSA isolates; assay type: cell-based; details: Table 1 (Example 2)
# [5] = clinical isolate AG160 WT, Table 2 (Example 4), read-out: MIC AG160 E. coli WT
# [6] = engineered strain pH430 WT, Table 2 (Example 4), read-out: MIC pH430 E. coli WT
# [7] = read-out: MIC AG037 E. coli APH(3′)-III
compound,measurement,setting,value
"NCC[C@H](O)C(=O)N[C@@H]1C[C@H](N)[C@@H](O[C@H]2O[C@H](CN)[C@@H](O)[C@H](O)[C@H]2O)[C@H](O)[C@H]1O[C@H]1O[C@H](CO)[C@@H](O)[C@H](N)[C@H]1O [AMK, reference compound]",MIC M. abscessus ATCC 19977 WT,M. abscessus; ATCC 19977 WT,1 µg/mL
same,MIC M. abscessus clinical isolate,M. abscessus; clinical isolate,2 µg/mL
same,MIC M. abscessus engineered Δeis2,M. abscessus; engineered Δeis2,0.125 to 0.25 µg/mL
same,MIC M. smegmatis SZ380 WT,M. smegmatis SZ380,0.5 µg/mL
same,MIC E. coli WT,E coli wild type; WT,2 µg/mL
same,MIC E. coli AG106 AAC(2′)-Ia,"[1]; AG106 AAC(2′)-Ia, Table 5 (Example 3)",2 µg/mL
same,MIC E. coli pGB2armA armA,"[1]; pGB2armA armA, Table 5 (Example 3)",>128 μg/ml
same,MIC E. coli pH434 AAC(2′)-Ib,"[1]; pH434 AAC(2′)-Ib, Table 5 (Example 3)",2 μg/ml
NC[C@H]1O[C@H](O[C@H]2[C@H](O[C@@H]3O[C@H](CO)[C@@H](O)[C@H]3O)[C@@H](O)[C@H](N)C[C@@H]2N)[C@H](N)C[C@@H]1O [Compound 047],IC50,[2]; Table 3 (Example 1),0.1 µM
same,IC50,[3]; Table 3 (Example 1),293 µM
same,IC50,[4]; Table 3 (Example 1),325 µM
same,MIC WT,"E coli wild type; WT, Table 3 (Example 1)",2 to 4 µg/mL
same,MIC APH(3)-VI,[1],4 µg/mL
same,MIC APH(3′)-I,[1],>64 µg/mL
same,MIC APH(3′)-II,[1],2 to 4 µg/mL
same,MIC APH(3′)-III,[1],>64 µg/mL
NC[C@H]1O[C@H](O[C@H]2[C@H](O[C@@H]3O[C@H](CN)[C@@H](O)[C@H]3O)[C@@H](O)[C@H](N)C[C@@H]2N)[C@H](N)[C@@H](O)[C@@H]1O [Compound 048],IC50,[2]; Table 3 (Example 1),0.09 µM
same,IC50,[4]; Table 3 (Example 1),76 µM
same,MIC WT,"E coli wild type; WT, Table 3 (Example 1)",2 to 4 µg/mL
same,MIC APH(3)-VI,[1],64 µg/mL
same,MIC APH(3′)-I,[1],>64 µg/mL
same,MIC APH(3′)-II,[1],>64 µg/mL
same,MIC APH(3′)-III,[1],>64 µg/mL
"CC1CC(O)C2O[C@H](O[C@@H]3C(N)C[C@@H](N)C(O)[C@H]3O[C@@H]3O[C@H](CO)[C@H](O[C@H]4O[C@@H](CN)[C@@H](O)C(O)C4N)C3O)C(N)[C@@H](O)[C@@H]2O1 (stereo partly drawn) [Compound 109, 4-O-(2′-Amino-4′,8′-anhydro-2′,7′,9′-trideoxy-D-erythro-α-D-gluco-nonapyranosyl)-5-O-[3-O-(2,6-diamino-2,6-dideoxy-β-L-idopyranosyl)-β-D-ribofuranosyl]-2-deoxystreptamine.5AcOH]",IC50,[2]; Table 3 (Example 2),0.47 µM
same,MIC50,"P aeruginosa; strain AG33, read-out: MIC50 P aeruginosa AG33",> 128 µg/mL
same,MIC50,"P aeruginosa; strain AG86, read-out: MIC50 P aeruginosa AG86",> 128 µg/mL
same,MIC50 P aeruginosa AG31,P aeruginosa; strain AG31,>128 µg/mL
same,MIC50 P aeruginosa AG32,P aeruginosa; strain AG32,>128 µg/mL
same,IC50,[3]; Table 3 (Example 2),169 µM
same,IC50,[4]; Table 3 (Example 2),193 µM
same,MIC SZ380 M. smegmatis,M. smegmatis SZ380; strain SZ380 Mycobacterium smegmatis,16 µg/mL
same,MIC50,"MRSA; Staphylococcus aureus, MRSA, strain AG42, read-out: MIC50 MRSA AG42",16 to 32 µg/mL
same,MIC50 MRSA AG38,MRSA; strain AG38,32 µg/mL
same,MIC50 MRSA AG39,MRSA; strain AG39,32 to 64 µg/mL
same,MIC50 MRSA AG44,MRSA; strain AG44,32 µg/mL
same,MIC50 E coli BM13 (AG06) wt,"E coli wild type; BM13 (AG06) wt, Table 2A (Example 2)",16 to 32 µg/mL
same,MIC WT,"E coli wild type; WT, Table 3 (Example 2)",16 to 32 µg/mL
same,MIC50 E coli pH430 WT,"E coli wild type; pH430 WT, Table 2B (Example 2)",16-32 μg/ml
same,MIC50 E coli AG01,"E coli wild type; strain AG01, Table 1 (Example 2)",128 µg/mL
same,MIC50 E coli AG03,"E coli wild type; strain AG03, Table 1 (Example 2)",64 to 128 µg/mL
same,MIC50 E coli AG55,"E coli wild type; strain AG55, Table 1 (Example 2)",64 to 128 µg/mL
"CC(=O)O.NCC1OC(OC2C(CO)OC(OC3C(O)C(N)CC(N)C3OC3OC(CO)C(O)C(O)C3O)C2O)C(N)C(O)C1O (centres unmarked) [Compound 118, 2′-Deamino-2′-hydroxy-paromomycin acetate salt]",MIC M. smegmatis SZ380 WT,M. smegmatis SZ380,>128 µg/mL
same,MIC E. coli WT,E coli wild type; WT,32 µg/mL
CC(=O)NC[C@H]1O[C@@H](O[C@@H]2C(O)[C@H](N)CC(N)[C@H]2O[C@H]2OC(CN)[C@@H](O)[C@H](O)C2N)C(O)[C@H]1O (some centres unmarked) [Compound 129],MIC,E coli wild type; [5],64 µg/mL
same,MIC,E coli wild type; [6],32 µg/mL
same,MIC,[1]; [7],> 64 µg/mL
NCC1OC(OC2C(N)CC(N)C(O)C2OC2OC(CNC=O)C(O)C2O)C(N)C(O)C1O (centres unmarked) [Compound 130],IC50,[2]; Table 3 (Example 1),0.24 µM
same,IC50,[3]; Table 3 (Example 1),359 µM
same,IC50,[4]; Table 3 (Example 1),364 µM
same,MIC,"E coli wild type; WT, Table 3 (Example 1), read-out: MIC WT",4 µg/mL
same,MIC,E coli wild type; [5],16 µg/mL
same,MIC,E coli wild type; [6],4 µg/mL
same,MIC,[1]; [7],> 128 µg/mL
same,MIC,[1]; read-out: MIC AG163 E. coli APH(3′)-I,> 128 µg/mL
same,MIC,[1]; read-out: MIC AG166 E. coli APH(3′)-II,> 128 µg/mL
same,MIC,[1]; read-out: MIC APH(3)-VI,> 64 µg/mL
same,MIC,[1]; read-out: MIC APH(3′)-I,> 64 µg/mL
same,MIC,[1]; read-out: MIC APH(3′)-II,> 64 µg/mL
same,MIC,[1]; read-out: MIC APH(3′)-III,> 64 µg/mL
same,MIC,[1]; read-out: MIC pH421 E. coli APH(3′)-I,> 64 µg/mL
same,MIC,[1]; read-out: MIC pH422 E. coli APH(3′)-II,> 64 µg/mL
same,MIC,[1]; read-out: MIC pH423 E. coli APH(3′)-VI,> 64 µg/mL

# From patent publication US11466044B2 (WAYNE STATE UNIVERSITY, priority 2017, dated 2022)
